{
  "source": "patent US7115662B2",
  "about": "“Certain 5-alkyl-2-arylaminophenylacetic acids and derivatives” (Novartis AG, priority 1997, dated 2006)",
  "data": [
    {"test_system": "gross gastric ulceration", "assay": "gastric tolerability assay", "format": "in vivo", "settings": "rat; 100 mg/kg p.o.; four hours after administration", "procedure": "The gastric tolerability assay is used to assess gross ulceration in the rat, measured four hours after oral administration of the test compound. The test is carried out as follows: Rats are fasted overnight, administered compound in fortified cornstarch vehicle by gavage, and sacrificed by carbon dioxide inhalation four hours later. The stomachs are removed and gross gastric lesions counted and measured to give the total lesion length per rat. Each experiment contains the following groups (5–6 rats per group): vehicle control, test compounds, and diclofenac as a reference compound. Data are calculated as the mean number of ulcers in a group, the mean length of ulcers (mm) in the group and as the ulcer index (UI). UI=mean length of ulcers in a group×ulcer incidence where ulcer incidence is the fraction of animals in the group with lesions (100% incidence is 1).", "values": [
      {"smiles": "CCc1ccc(Nc2c(F)c(F)cc(F)c2F)c(CC(=O)OCC(=O)O)c1", "note": "[6(a), carboxymethyl 5-ethyl-2-(2′,3′,5′,6′-tetrafluoroanilino)phenylacetate]", "gastric ulcerogenic effect": "essentially free of any gastric ulcerogenic effect"}
    ]},
    {"test_system": "intestinal permeability", "assay": "intestinal tolerability (51Cr-EDTA intestinal permeability)", "format": "in vivo", "settings": "rat; 30 mg/kg p.o.; 51Cr-EDTA urinary excretion over 24 h", "procedure": "Intestinal tolerability can be determined by measuring the effect on intestinal permeability. Lack of increase in permeability is indicative of intestinal tolerability. The method used is a modification of a procedure by Davies, et al., Pharm. Res. 1994; 11:1652–1656 and is based on the fact that excretion of orally administered ^51Cr-EDTA, a marker of small intestinal permeability, is increased by NSAIDs. Groups of rats (≧12/group) are administered a single, oral dose of test compound or vehicle by gastric intubation. Immediately following compound dose, each rat is administered ^51Cr-EDTA (5 μCi/rat) by gastric intubation. The rats are placed in individual metabolic cages and given food and water ad libitum. Urine is collected over a 24 hour period. Twenty-four hours after administration of ^51Cr-EDTA the rats are sacrificed. To quantify compound effect on intestinal permeability, the excreted ^51Cr-EDTA measured in the urine of compound treated rats is compared to the excreted ^51Cr-EDTA measured in the urine of vehicle treated rats. Relative permeability is determined by calculating the activity present in each urine sample as a percent of the administered dose after correcting for background radiation.", "values": [
      {"smiles": "CCc1ccc(Nc2c(F)c(F)cc(F)c2F)c(CC(=O)OCC(=O)O)c1", "note": "[6(a), carboxymethyl 5-ethyl-2-(2′,3′,5′,6′-tetrafluoroanilino)phenylacetate]", "effect on intestinal permeability": "no effect or only a minimal effect"}
    ]},
    {"test_system": "pain threshold in yeast-inflamed paw", "assay": "Randall-Selitto paw pressure assay", "format": "in vivo, rat", "settings": "male Wistar rats; 10 mg/kg orally; 1 h after dosing", "procedure": "The analgesic activity of the compounds of the invention is determined using the well-known Randall-Selitto assay.\nThe Randall-Selitto paw pressure assay measures antinociception (analgesic activity) in inflamed tissue by comparing the pressure threshold in the inflamed paw of the rat after oral administration of test drug with that in the inflamed paw of rats administered corn starch vehicle orally.\nGroups of 10 male Wistar rats weighing 40–50 gms are fasted overnight prior to testing. Hyperalgesia is induced by the injection of 0.1 ml of a 20% suspension of Brewer's yeast with a 26 gauge needle into the subplantar region of the right hindpaw. The left paw is not injected and is used as the control paw for determination of hyperalgesia. Vehicle (Fortified corn starch suspension 3%) at 10 ml/kg, reference compound (diclofenac is run in every experiment at the same dose as test compounds) and test compounds at different doses suspended in vehicle at 10 ml/kg are administered orally 2 hours after the yeast injection. The threshold for paw withdrawal is quantified with a Basile Analgesy-meter 1 hour after oral administration of test compounds. The nociceptive threshold is defined as the force in grams at which the rat withdraws its foot or vocalizes. Either vocalization or foot withdrawal is recorded as a response.\nThe data are analyzed by comparing the mean pain threshold of the corn starch vehicle-treated group for the inflamed and non-inflamed paws to that of individual drug-treated rats. Individual rats in the drug-treated groups and positive control (diclofenac) group are called reactors if the individual pain threshold in each paw exceeds the control group mean threshold by two standard deviations of that mean. The mean pain thresholds of the inflamed paw in the control group are compared to the individual pain thresholds of the inflamed paw in the test drug group. The non-inflamed control mean pressure threshold is compared to the non-inflamed individual pressure thresholds in the test groups. Results are expressed as number of reactors in each test group (n=10) for inflamed and non-inflamed paws. Percentages are calculated by dividing number of reactors by total number of rats used for a compound.", "values": [
      {"smiles": "CCc1ccc(Nc2c(F)c(F)cc(F)c2F)c(CC(=O)OCC(=O)O)c1", "note": "[6(a), carboxymethyl 5-ethyl-2-(2′,3′,5′,6′-tetrafluoroanilino)phenylacetate]", "pain threshold in the inflamed paw": "increase the pain threshold", "pain threshold in the non-inflamed paw": "no threshold elevation"}
    ]},
    {"test_system": "not given", "assay": "not given", "settings": "not given", "units": {"melting point": "°C"}, "values": [
      {"smiles": "CCc1ccc(Nc2c(F)c(F)cc(F)c2F)c(CC(=O)OCC(=O)O)c1", "note": "[6(a), carboxymethyl 5-ethyl-2-(2′,3′,5′,6′-tetrafluoroanilino)phenylacetate]", "melting point": "151 to 153"},
      {"smiles": "Cc1ccc(Nc2c(F)c(F)cc(F)c2F)c(CC(=O)O)c1", "note": "[Example 1(b), 5-methyl-2-(2′,3′,5′,6′-tetrafluoroanilino)phenylacetic acid]", "melting point": "153 to 156"},
      {"smiles": "Cc1ccc(Nc2c(Cl)cccc2Cl)c(CC(=O)O)c1", "note": "[Example 1(c), 5-methyl-2-(2′,6′-dichloroanilino)phenylacetic acid]", "melting point": "168 to 170"},
      {"smiles": "Cc1cc(Cl)c(Nc2ccc(C)cc2CC(=O)O)c(Cl)c1", "note": "[Example 1(e), 5-methyl-2-(2′,6′-dichloro-4′-methylanilino)phenylacetic acid]", "melting point": "179 to 182"},
      {"smiles": "Cc1ccc(Nc2c(C)cccc2Cl)c(CC(=O)O)c1", "note": "[Example 1(f), 5-methyl-2-(2′-chloro-6′-methylanilino)phenylacetic acid]", "melting point": "138 to 140"},
      {"smiles": "Cc1ccc(Nc2c(F)cc(Cl)cc2Cl)c(CC(=O)O)c1", "note": "[Example 1(h), 5-methyl-2-(2′-fluoro-4′,6′-dichloroanilino)phenylacetic acid]", "melting point": "178 to 180"},
      {"smiles": "Cc1ccc(Nc2c(C)cc(F)cc2Cl)c(CC(=O)O)c1", "note": "[Example 1(i), 5-methyl-2-(2′-chloro-4′-fluoro-6′-methylanilino)phenylacetic acid]", "melting point": "154 to 156"},
      {"smiles": "Cc1ccc(Nc2c(F)cc(O)cc2Cl)c(CC(=O)O)c1", "note": "[Example 1(j), 5-methyl-2-(2′-chloro-4′-hydroxy-6′-fluoroanilino)phenylacetic acid]", "melting point": "180 to 182"},
      {"smiles": "CCc1ccc(Nc2c(F)cccc2Cl)c(CC(=O)O)c1", "note": "[Example 2(a), 5-ethyl-2-(2′-fluoro-6′-chloroanilino)phenylacetic acid]", "melting point": "147 to 148"},
      {"smiles": "CCc1ccc(Nc2c(C)cccc2Cl)c(CC(=O)O)c1", "note": "[Example 2(b), 5-ethyl-2-(2′-chloro-6′-methylanilino)phenylacetic acid]", "melting point": "125 to 126"},
      {"smiles": "CCc1ccc(Nc2c(F)ccc(F)c2F)c(CC(=O)O)c1", "note": "[Example 2(c), 5-ethyl-2-(2′,3′,6′-trifluoroanilino)phenylacetic acid]", "melting point": "138 to 140"},
      {"smiles": "CCOc1c(F)c(F)c(Nc2ccc(CC)cc2CC(=O)O)c(F)c1F", "note": "[Example 2(d), 5-ethyl-2-(2′,3′,5′,6′-tetrafluoro-4′-ethoxyanilino)phenylacetic acid]", "melting point": "131 to 132"},
      {"smiles": "CCc1ccc(Nc2c(F)cc(F)cc2Cl)c(CC(=O)O)c1", "note": "[Example 2(e), 5-ethyl-2-(2′-chloro-4′,6′-difluoroanilino)phenylacetic acid]", "melting point": "160 to 162"},
      {"smiles": "CCc1ccc(Nc2c(F)cc(Cl)cc2Cl)c(CC(=O)O)c1", "note": "[Example 2(f), 5-ethyl-2-(2′,4′-dichloro-6′-fluoroanilino)phenylacetic acid]", "melting point": "169 to 171"},
      {"smiles": "CCc1ccc(Nc2c(C)cc(Cl)cc2Cl)c(CC(=O)O)c1", "note": "[Example 3(b), 5-ethyl-2-(2′,4′-dichloro-6′-methylanilino)phenylacetic acid]", "melting point": "180 to 183"},
      {"smiles": "CCc1ccc(Nc2c(Cl)cccc2Cl)c(CC(=O)O)c1", "note": "[Example 3(c), 5-ethyl-2-(2′,6′-dichloroanilino)phenylacetic acid]", "melting point": "133 to 136"},
      {"smiles": "CCc1ccc(Nc2c(C)cc(F)cc2F)c(CC(=O)O)c1", "note": "[Example 5(b), 5-ethyl-2-(2′,4′-difluoro-6′-methylanilino)phenylacetic acid]", "melting point": "143 to 145"},
      {"smiles": "CCc1ccc(Nc2c(C)cc(F)cc2Cl)c(CC(=O)O)c1", "note": "[Example 5(c), 5-ethyl-2-(2′-chloro-4′-fluoro-6′-methylanilino)phenylacetic acid]", "melting point": "151 to 154"},
      {"smiles": "CCc1ccc(Nc2c(C)cc(Cl)cc2Cl)c(CC(=O)OCC(=O)O)c1", "note": "[Example 6(b), carboxymethyl 5-ethyl-2-(2′,4′-dichloro-6′-methylanilino)phenylacetate]", "melting point": "123 to 125"},
      {"smiles": "CCc1ccc(Nc2c(Cl)cccc2Cl)c(CC(=O)OCC(=O)O)c1", "note": "[Example 6(c), carboxymethyl 5-ethyl-2-(2′,6′-dichloroanilino)phenylacetate]", "melting point": "124 to 126"},
      {"smiles": "CCc1ccc(Nc2c(F)cc(F)cc2Cl)c(CC(=O)OCC(=O)O)c1", "note": "[Example 6(d), carboxymethyl 5-ethyl-2-(2′,4′-difluoro-6′-chloroanilino)phenylacetate]", "melting point": "142 to 144"},
      {"smiles": "CCc1ccc(Nc2c(F)cc(Cl)cc2Cl)c(CC(=O)OCC(=O)O)c1", "note": "[Example 6(e), carboxymethyl 5-ethyl-2-(2′,4′-dichloro-6′-fluoroanilino)phenylacetate]", "melting point": "132 to 134"},
      {"smiles": "CCc1ccc(Nc2c(F)cccc2Cl)c(CC(=O)OCC(=O)O)c1", "note": "[Example 6(f), carboxymethyl 5-ethyl-2-(2′-chloro-6′-fluoroanilino)phenylacetate]", "melting point": "106 to 108"},
      {"smiles": "Cc1ccc(Nc2c(F)cc(Cl)cc2Cl)c(CC(=O)OCC(=O)O)c1", "note": "[Example 6(g), carboxymethyl 5-methyl-2-(2′-fluoro-4′,6′-dichloroanilino)phenylacetate]", "melting point": "148 to 150"},
      {"smiles": "Cc1ccc(Nc2c(Cl)cccc2Cl)c(CC(=O)OCC(=O)O)c1", "note": "[Example 6(h), carboxymethyl 5-methyl-2-(2′,6′-dichloroanilino)phenylacetate]", "melting point": "125 to 126"},
      {"smiles": "Cc1ccc(Nc2c(F)cccc2Cl)c(CC(=O)OCC(=O)O)c1", "note": "[Example 6(i), carboxymethyl 5-methyl-2-(2′-chloro-6′-fluoroanilino)phenylacetate]", "melting point": "96 to 98"},
      {"smiles": "CCc1ccc(Nc2c(F)c(F)cc(F)c2F)c(CC(=O)OC(C)(C)C(=O)O)c1", "note": "[Example 8, 1-carboxy-1-methylethyl 5-ethyl-2-(2′,3′,5′,6′-tetrafluoroanilino)phenylacetate]", "melting point": "104 to 108"},
      {"smiles": "Cc1ccc(Nc2c(F)cccc2C(F)(F)F)c(CC(=O)O)c1", "note": "[Example 9(a), 5-methyl-2-(2′-fluoro-6′-trifluoromethylanilino)phenylacetic acid]", "melting point": "155 to 156"}
    ]}
  ]
}
